Measurements taken from PubChem BioAssay AID1259411 (Chemical Carcinogenesis Research Information System (CCRIS), 2018).
The source made the active and inactive calls. The rule behind the calls is not given here.

Test system: rodent carcinogenicity bioassays, tumor incidence
Assay: CCRIS carcinogenicity studies
How it was run: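 NCI-built, expert-reviewed records of carcinogenicity and related test outcomes (mutagenicity, tumor promotion/inhibition) compiled from published and report sources, historical span 1985-2011, not updated.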

Clc1ccc(C(c2ccc(Cl)cc2)C(Cl)(Cl)Cl)cc1
carcinogen call (Species: MOUSE, Strain/Sex: B6AKF1/MALE,FEMALE, Route: GAVAGE/ORAL, Dose: 46.4 MG/KG FROM D 7-28 OF LIFE THEN 140 PPM IN DIET, Tumor Site: Type of Lesion: LIVER: HEPATOMA): active; positive
carcinogen call (Species: MOUSE, Strain/Sex: B6C3F1/FEMALE, Route: ORAL, Dose: 0, 87, 175 PPM IN DIET, TWA, Dose: 0, 87, 175 PPM IN DIET, TWA): inactive; negative
carcinogen call (Species: MOUSE, Strain/Sex: B6C3F1/MALE,FEMALE, Route: GAVAGE/ORAL, Dose: 46.4 MG/KG FROM D 7-28 OF LIFE THEN 140 PPM IN DIET, Tumor Site: Type of Lesion: LIVER: HEPATOMA): active; positive
carcinogen call (Species: MOUSE, Strain/Sex: B6C3F1/MALE, Route: ORAL, Dose: 0, 22, 90 PPM IN DIET, TWA, Dose: 0, 22, 90 PPM IN DIET, TWA): inactive; negative
carcinogen call (Species: MOUSE, Strain/Sex: BALB/MALE, Route: ORAL, Dose: 0, 175 PPM IN ACETONE ADDED TO DIET FOR 8 WK THEN BY 125 PPM FOR 8 WK AND 100 PPM FOR 59 WK (STUDY DURATION: 75 WK), Tumor Site: Type of Lesion: LIVER: HEPATOCELLULAR ADENOMA, HEPATOCELLULAR CARCINOMA): active; positive
carcinogen call (Species: MOUSE, Strain/Sex: CF-1/MALE,FEMALE, Route: DIET, Dose: 0, 50, 100 PPM FOR 2 YR, Tumor Site: Type of Lesion: LIVER): active; positive
carcinogen call (Species: MOUSE, Strain/Sex: CF-1/MALE,FEMALE, Route: DIET, Dose: 100 PPM FOR 110 WK, Tumor Site: Type of Lesion: LIVER): active; positive
carcinogen call (Species: RAT, Route: ORAL, Tumor Site: Type of Lesion: LIVER): active; positive
carcinogen call (Species: RAT, Strain/Sex: OSBORNE-MENDEL/FEMALE, Route: ORAL, Dose: 0, 210, 420 PPM IN DIET, TWA, Dose: 0, 210, 420 PPM IN DIET, TWA): inactive; negative
carcinogen call (Species: RAT, Strain/Sex: OSBORNE-MENDEL/MALE, Route: ORAL, Dose: 0, 321, 642 PPM IN DIET, TWA, Dose: 0, 321, 642 PPM IN DIET, TWA): inactive; negative

CCN=[N+](C)[O-]
carcinogen call (Species: RAT, Strain/Sex: F344/MALE, Route: ORAL, Dose: 0, 12, 48 MG/ML IN A NEUTRAL DEIONIZED DRINKING WATER SOLUTION 5 D/WK FOR 30 WK (TOTAL DOSE 36; 144 MG) (STUDY DURATION:, Dose: 0, 12, 48 MG/ML IN A NEUTRAL DEIONIZED DRINKING WATER SOLUTION 5 D/WK FOR 30 WK (TOTAL DOSE 36; 144 MG) (STUDY DURATION:, Tumor Site: Type of Lesion: LIVER: CARCINOMA, HEMANGIOSARCOMA, KIDNEY: TUMOR): active; positive

CCNc1nc(Cl)nc(NC(C)C)n1
carcinogen call (Species: RAT, Strain/Sex: F344/FEMALE, Route: ORAL, Dose: 0, 10, 70, 200, 400 PPM IN DIET FOR 24 MO (STUDY DURATION: 24 MO), Dose: 0, 10, 70, 200, 400 PPM IN DIET FOR 24 MO (STUDY DURATION: 24 MO)): inactive; negative
carcinogen call (Species: RAT, Strain/Sex: F344/LATI/FEMALE, Route: ORAL, Dose: 0, 500, 1000 PPM TECHNICAL GRADE IN FEED FOR 8 WK THEN 0, 375, 750 PPM FOR LIFE SPAN (STUDY DURATION: LIFE SPAN), Dose: 0, 500, 1000 PPM TECHNICAL GRADE IN FEED FOR 8 WK THEN 0, 375, 750 PPM FOR LIFE SPAN (STUDY DURATION: LIFE SPAN), Tumor Site: Type of Lesion: UTERUS: ADENOCARCINOMA, HEMATOPOIETIC SYSTEM: LEUKEMIA OR LYMPHOMA): active; positive
carcinogen call (Species: RAT, Strain/Sex: F344/LATI/MALE, Route: ORAL, Dose: 0, 500, 1000 PPM TECHNICAL GRADE IN FEED FOR 8 WK THEN 0, 375, 750 PPM FOR LIFE SPAN (STUDY DURATION: LIFE SPAN), Dose: 0, 500, 1000 PPM TECHNICAL GRADE IN FEED FOR 8 WK THEN 0, 375, 750 PPM FOR LIFE SPAN (STUDY DURATION: LIFE SPAN), Tumor Site: Type of Lesion: MAMMARY GLAND: BENIGN TUMOR): active; positive
carcinogen call (Species: RAT, Strain/Sex: SPRAGUE-DAWLEY/FEMALE, Route: ORAL, Dose: 0, 70, 400 PPM IN DIET FOR 24 MO (STUDY DURATION: 24 MO), Dose: 0, 70, 400 PPM IN DIET FOR 24 MO (STUDY DURATION: 24 MO)): inactive; negative

Nc1ccccc1-c1ccccc1
carcinogen call (Species: MOUSE, Strain/Sex: B6C3F1/FEMALE, Route: ORAL, Dose: 0, 1000, 3000 PPM IN DIET FOR 103 WK (STUDY DURATION: 103 WK), Dose: 0, 1000, 3000 PPM IN DIET FOR 103 WK (STUDY DURATION: 103 WK), Tumor Site: Type of Lesion: BLOOD VESSELS: HEMANGIOMA, HEMANGIOSARCOMA): active; positive
carcinogen call (Species: MOUSE, Strain/Sex: B6C3F1/MALE, Route: ORAL, Dose: 0, 1000, 3000 PPM IN DIET FOR 103 WK (STUDY DURATION: 103 WK), Dose: 0, 1000, 3000 PPM IN DIET FOR 103 WK (STUDY DURATION: 103 WK), Tumor Site: Type of Lesion: SPLEEN: HEMANGIOSARCOMA): equivocal
carcinogen call (Species: RAT, Strain/Sex: F344/FEMALE, Route: ORAL, Dose: 0, 1000, 3000 PPM IN DIET FOR 103 WK (STUDY DURATION: 103 WK), Dose: 0, 1000, 3000 PPM IN DIET FOR 103 WK (STUDY DURATION: 103 WK)): inactive; negative
carcinogen call (Species: RAT, Strain/Sex: F344/MALE, Route: ORAL, Dose: 0, 1000, 3000 PPM IN DIET FOR 103 WK (STUDY DURATION: 103 WK), Dose: 0, 1000, 3000 PPM IN DIET FOR 103 WK (STUDY DURATION: 103 WK)): inactive; negative

COc1cc2c(c3ccc4ccccc4c13)CCC2
carcinogen call (Species: MOUSE, Strain/Sex: TO/MALE, FEMALE, Route: DERMAL, Dose: 0, 50 UG (10 µL OF A 0.5% W/V TOLUENE SOLUTION) 2/WK FOR 70 WK (STUDY DURATION: 70 WK), Tumor Site: Type of Lesion: SKIN: PAPILLOMA OR CARCINOMA): active; positive

O=S(=O)(O)c1ccc2c(N=Nc3ccc(S(=O)(=O)O)c4ccccc34)c(O)c(S(=O)(=O)O)cc2c1
carcinogen call (Species: MOUSE, Strain/Sex: SWISS-WEBSTER/FEMALE, Route: DERMAL, Dose: 0, 1% IN 0.1 ML DISTILLED WATER 1/WK FOR 19.5 MO (STUDY DURATION: 19.5 MO)): inactive; negative
carcinogen call (Species: MOUSE, Strain/Sex: SWISS-WEBSTER/MALE, Route: DERMAL, Dose: 0, 1% IN 0.1 ML DISTILLED WATER 1/WK FOR 19.5 MO (STUDY DURATION: 19.5 MO)): inactive; negative
carcinogen call (Species: RAT, Strain/Sex: WISTAR/FEMALE, Route: ORAL, Dose: 0, 50, 250, 1250 MG/KG IN THE DIET TO PUPS OF PARENTS EXPOSED TO THE SAME DOSE LEVELS FOR 60 D PRIOR TO MATING AND CONTI, Dose: 0, 50, 250, 1250 MG/KG IN THE DIET TO PUPS OF PARENTS EXPOSED TO THE SAME DOSE LEVELS FOR 60 D PRIOR TO MATING AND CONTI): inactive; negative
carcinogen call (Species: RAT, Strain/Sex: WISTAR/MALE, Route: ORAL, Dose: 0, 50, 250, 1250 MG/KG IN THE DIET TO PUPS OF PARENTS EXPOSED TO THE SAME DOSE LEVELS FOR 60 D PRIOR TO MATING AND CONTI, Dose: 0, 50, 250, 1250 MG/KG IN THE DIET TO PUPS OF PARENTS EXPOSED TO THE SAME DOSE LEVELS FOR 60 D PRIOR TO MATING AND CONTI): inactive; negative
